According to patent publication US20230398130A1, “METHODS AND COMPOSITIONS FOR DIFFERENTIATING STEM CELLS” (Massachusetts Institute of Technology, priority 2020, published 2023):
“Also recorded” adds a separate entry of the source.

Columns and labels:
ISC-enriched organoids [1] = assay: Primary screen, 384-well 2.5-D organoid differentiation (ENR+CD, 6 days): basal lysozyme secretion (LYZ.NS); format: cell-based, murine; settings: for Z.LYZ.NS (standard z score) / Dose.FC.LYZ.NS (log 2 fold change): primary screen; for Dose.FC.LYZ.NS (log 2 fold change): vs plate median
From the text: (§1) High-throughput screening.

ISC-enriched organoids [2] = assay: Primary screen, 384-well 2.5-D organoid differentiation (ENR+CD, 6 days): carbachol-induced lysozyme secretion (LYZ.S); format: cell-based, murine; settings: primary screen, vs plate median
From the text: as §1

ISC-enriched organoids [3] = assay: Secondary (validation) screen, 384-well 2.5-D, ENR+CD 6 days, n=8 wells, vs ENR+CD+DMSO control: ATP (CTG); format: cell-based, murine; parameters: key to Dose.FC.CTG: log10 fold change vs median of vehicle control wells
ISC-enriched organoids [4] = assay: Secondary (validation) screen, 384-well 2.5-D, ENR+CD 6 days, n=8 wells, vs ENR+CD+DMSO control: basal lysozyme secretion (LYZ.NS); format: cell-based, murine; parameters: key to Dose.FC.LYZ.NS: log10 fold change vs median of vehicle control wells
ISC-enriched organoids [5] = assay: Secondary (validation) screen, 384-well 2.5-D, ENR+CD 6 days, n=8 wells, vs ENR+CD+DMSO control: carbachol-induced lysozyme secretion (LYZ.S); format: cell-based, murine
ISC-enriched organoids [6] = assay: Primary screen, 384-well 2.5-D organoid differentiation (ENR+CD, 6 days, Target Selective Inhibitor Library, vs whole-plate median): ATP (CellTiter-Glo 3D, CTG); settings: primary screen; for Dose.FC.CTG (log 2 fold change): vs plate median
ISC-enriched organoids [7] = assay: Lysozyme secretion assay, 3-D organoids in ENR+CD, normalized to ATP; format: cell-based, murine; settings: for Paneth cell differentiation (functional LYZ secretion), in combination with KPT-330: 6-day ENR+CD differentiation with 160 nM KPT-330; for Paneth cell differentiation (functional LYZ secretion), compound alone: 6-day ENR+CD differentiation, 10 μM SR11302, 20 nM Cobimetinib, others over a dose range
Protocol: Lysozyme assay (3D culture). ISC-enriched organoids cultured in 3D Matrigel with ENRCV media were passaged to 48-well plate in 3D Matrigel with ENRCV. At day zero, media were replaced to ENR or ENRCD with or without indicated compounds, and media were replaced every other day. At day six, cells were washed twice with basal media and treated with carbamylcholine chloride (Sigma, C4382) for 3 hours. Media were collected and lysozyme activity was measured by EnzChek Lysozyme Assay Kit (ThermoFisher, E22013).
(§2) Lysozyme secretion assay. ISC-enriched organoids in 3D Matrigel culture were passaged to a 48- or 96-well plate and cultured with ENR or ENR+CD media containing DMSO or each drug for 6 days. DMSO- or drug-containing media were changed every other day. On day 6, cells were washed with basal media twice and treated with basal media with or without 10 μM carbamoylcholine chloride for 3 h in a CO2 incubator at 37° C. A part of the conditioned media was collected and used for lysozyme assay (Thermo, E-22013) following the manufacturer's instruction. The fluorescence was measured using excitation/emission of 485/530 nm. CellTiter-Glo 3D Reagent (Promega, G9681) was added afterward, and the cell culture plate was incubated on an orbital shaker at RT for 30 min to induce cell lysis and to stabilize the luminescent signal. The solution was replaced to a 96-well white microplate, and luminescent signals were measured by a microplate reader (infinite M200, Tecan). The standard curve was prepared by diluting recombinant ATP (Promega, P1132). For both assays, a polynomial cubic curve was fitted to a set of standard data, and each sample value was calculated on the Microsoft Excel.
as §2, with “in 3-D” for “in 3D”, “μM carbachol” for “μM carbamoylcholine chloride”, “3 hours” for “3 h”, “C. Conditioned” for “C. A part of the conditioned”, “nm. CTG” for “nm. CellTiter-Glo”, “Reagent” for “Reagent (Promega, G9681)”

SMILES: NC(=O)c1ccc(-c2nc(-c3ccccn3)c(-c3ccc4c(c3)OCO4)[nH]2)cc1 [SB431542]
- Z.LYZ.NS (standard z score) (ISC-enriched organoids [1]; Dose 0.08 uM): 1.225
- Dose.FC.LYZ.NS (log 2 fold change) (ISC-enriched organoids [1]; Dose 0.08 uM): 0.141
- Z.LYZ.NS (standard z score) (ISC-enriched organoids [1]; Dose 0.40 uM): 1.514
- Dose.FC.LYZ.NS (log 2 fold change) (ISC-enriched organoids [1]; Dose 0.40 uM): 0.174
- Z.LYZ.NS (standard z score) (ISC-enriched organoids [1]; Dose 2.00 uM): 1.632
- Dose.FC.LYZ.NS (log 2 fold change) (ISC-enriched organoids [1]; Dose 2.00 uM): 0.187
- Z.LYZ.NS (standard z score) (ISC-enriched organoids [1]; Dose 10.00 uM): 0.346
- Dose.FC.LYZ.NS (log 2 fold change) (ISC-enriched organoids [1]; Dose 10.00 uM): 0.040
- Dose.FC.LYZ.S (log 2 fold change) (ISC-enriched organoids [2]; Dose 0.08 uM): 0.135
- Dose.FC.LYZ.S (log 2 fold change) (ISC-enriched organoids [2]; Dose 0.40 uM): 0.309
- Dose.FC.LYZ.S (log 2 fold change) (ISC-enriched organoids [2]; Dose 2.00 uM): 0.223
- Dose.FC.LYZ.S (log 2 fold change) (ISC-enriched organoids [2]; Dose 10.00 uM): 0.126
- Dose.FC.CTG (ISC-enriched organoids [3]; Dose 0.06 uM): 0.160
- Z.CTG (ISC-enriched organoids [3]; Dose 0.06 uM): 1.439
- repSSMD.CTG (ISC-enriched organoids [3]; Dose 0.06 uM): 0.654
- Dose.FC.CTG (ISC-enriched organoids [3]; Dose 0.24 uM): 0.023
- Z.CTG (ISC-enriched organoids [3]; Dose 0.24 uM): 0.206
- repSSMD.CTG (ISC-enriched organoids [3]; Dose 0.24 uM): 0.141
- Dose.FC.CTG (ISC-enriched organoids [3]; Dose 0.48 uM): 0.083
- Z.CTG (ISC-enriched organoids [3]; Dose 0.48 uM): 0.752
- repSSMD.CTG (ISC-enriched organoids [3]; Dose 0.48 uM): 0.527
- Dose.FC.CTG (ISC-enriched organoids [3]; Dose […]): 0.120
- Dose.FC.LYZ.NS (ISC-enriched organoids [4]; Dose 0.06 uM): 0.089
- Z.LYZ.NS (ISC-enriched organoids [4]; Dose 0.06 uM): 0.709
- repSSMD.LYZ.NS (ISC-enriched organoids [4]; Dose 0.06 uM): 1.073
- Dose.FC.LYZ.NS (ISC-enriched organoids [4]; Dose 0.24 uM): 0.105
- Z.LYZ.NS (ISC-enriched organoids [4]; Dose 0.24 uM): 0.838
- repSSMD.LYZ.NS (ISC-enriched organoids [4]; Dose 0.24 uM): 0.830
- Dose.FC.LYZ.NS (ISC-enriched organoids [4]; Dose 0.48 uM): −0.016
- Z.LYZ.NS (ISC-enriched organoids [4]; Dose 0.48 uM): −0.128
- repSSMD.LYZ.NS (ISC-enriched organoids [4]; Dose 0.48 uM): −0.149
- Dose.FC.LYZ.NS (ISC-enriched organoids [4]; Dose […]): 0.116
- Z.LYZ.S (ISC-enriched organoids [5]; Dose 0.06 uM): 0.514
- log10 fold change in stimulated lysozyme secretion vs vehicle control (ISC-enriched organoids [5]; Dose 0.06 uM): 0.067
- repSSMD.LYZ.S (ISC-enriched organoids [5]; Dose 0.06 uM): 0.855
- Z.LYZ.S (ISC-enriched organoids [5]; Dose 0.24 uM): 0.211
- log10 fold change in stimulated lysozyme secretion vs vehicle control (ISC-enriched organoids [5]; Dose 0.24 uM): 0.027
- repSSMD.LYZ.S (ISC-enriched organoids [5]; Dose 0.24 uM): 0.301
- Z.LYZ.S (ISC-enriched organoids [5]; Dose 0.48 uM): −0.387
- log10 fold change in stimulated lysozyme secretion vs vehicle control (ISC-enriched organoids [5]; Dose 0.48 uM): −0.050
- repSSMD.LYZ.S (ISC-enriched organoids [5]; Dose 0.48 uM): −0.449
- log10 fold change in stimulated lysozyme secretion vs vehicle control (ISC-enriched organoids [5]; Dose […]): 0.072
- Z.CTG (standard z score) (ISC-enriched organoids [6]; Dose 0.08 uM): 0.907
- Dose.FC.CTG (log 2 fold change) (ISC-enriched organoids [6]; Dose 0.08 uM): 0.380
- Z.CTG (standard z score) (ISC-enriched organoids [6]; Dose 0.40 uM): 1.130
- Dose.FC.CTG (log 2 fold change) (ISC-enriched organoids [6]; Dose 0.40 uM): 0.473
- Z.CTG (standard z score) (ISC-enriched organoids [6]; Dose 2.00 uM): 0.754
- Dose.FC.CTG (log 2 fold change) (ISC-enriched organoids [6]; Dose 2.00 uM): 0.316
- Z.CTG (standard z score) (ISC-enriched organoids [6]; Dose 10.00 uM): 0.370
- Dose.FC.CTG (log 2 fold change) (ISC-enriched organoids [6]; Dose 10.00 uM): 0.155

SMILES: CC1=C(/C=C/C(=C/C=C/C(C)=C/C(=O)O)c2ccc(C)cc2)C(C)(C)CCC1 [SR11302]
- Paneth cell differentiation (functional LYZ secretion), in combination with KPT-330 (ISC-enriched organoids [7]): significantly decreases functional LYZ secretion
- Paneth cell differentiation (functional LYZ secretion), compound alone (ISC-enriched organoids [7]): also decreases functional LYZ secretion; also recorded: significantly decreases functional LYZ secretion

SMILES: COc1cc2c(Nc3ccc(NC(=O)c4ccccc4)cc3)ncnc2cc1OCCCN1CCOCC1 [ZM447439, reference compound]
- primary screen hit call (ISC-enriched organoids [1]; SSMD in LYZ.NS and LYZ.S assays): lower-effect size hit
- Paneth cell differentiation (functional LYZ secretion), compound alone (ISC-enriched organoids [7]): did significantly increase Paneth cell differentiation

SMILES: O=C(c1ccc(F)c(F)c1Nc1ccc(I)cc1F)N1CC(O)([C@@H]2CCCCN2)C1 [cobimetinib]
- Paneth cell differentiation (functional LYZ secretion), in combination with KPT-330 (ISC-enriched organoids [7]): differentiation was enhanced; also recorded: significantly enhance Paneth cell differentiation; also recorded: proved synergistic in combination with KPT-330
- Paneth cell differentiation (functional LYZ secretion), compound alone (ISC-enriched organoids [7]): did not significantly alter Paneth cell differentiation

SMILES: Cc1ccc(C(=O)Cn2c3c(sc2=N)CCCC3)cc1 [pifithrin-a]
- Paneth cell differentiation (functional LYZ secretion), in combination with KPT-330 (ISC-enriched organoids [7]): neither P53 inhibitor altered Paneth cell differentiation; also recorded: did not alter Paneth cell differentiation
- Paneth cell differentiation (functional LYZ secretion), compound alone (ISC-enriched organoids [7]): neither P53 inhibitor altered Paneth cell differentiation; also recorded: did not alter Paneth cell differentiation

SMILES: c1ccc2c(CCNc3ccc(Nc4ccncc4)cc3)c[nH]c2c1 [serdemetan]
- Paneth cell differentiation (functional LYZ secretion), in combination with KPT-330 (ISC-enriched organoids [7]): neither P53 inhibitor altered Paneth cell differentiation; also recorded: did not alter Paneth cell differentiation
- Paneth cell differentiation (functional LYZ secretion), compound alone (ISC-enriched organoids [7]): neither P53 inhibitor altered Paneth cell differentiation; also recorded: did not alter Paneth cell differentiation
